Laboratory results taken from article PMC3123436 (Bioorganic & medicinal chemistry, 2011).
In brackets after ≈: the same amount, converted by molar mass.

What was measured:
Assay in all cases: microbe, parasite or virus in culture
Conditions in all cases: Mycobacterium tuberculosis, read-out: MIC95 (95% inhibition)
[1] = system: M. tuberculosis isolate VA1215
[2] = system: M. tuberculosis isolate UCSD14768J
[3] = system: M. tuberculosis isolate VA1345

Structure (SMILES)	MIC [1]	MIC [2]	MIC [3]
CN(CCCNC(=O)c1ccc2c(c1)N(Cc1cccc(Cl)c1)C(=O)c1ccccc1[S+]2[O-])C1CCCCC1 (stereo not shown) [Compound 2, N-[3-(cyclohexylmethylamino)propyl]-10-[(3-chlorophenyl)methyl]-10,11-dihydro-11-oxo-dibenzo-[b,f][1,4]-thiazepine-8-carboxamide-5-oxide]	110 µM (≈ 62.1 µg/mL)	110 µM (≈ 62.1 µg/mL)	110 µM (≈ 62.1 µg/mL)
CCC1CCCCN1CCCNC(=O)c1ccc2c(c1)N(Cc1cccc(Cl)c1)C(=O)c1ccccc1[S+]2[O-] (stereo not shown) [Compound 12]	110 µM (≈ 62.1 µg/mL)		
O=C(NCCCN1CCCC1)c1ccc2c(c1)N(Cc1cccc(Cl)c1)C(=O)c1ccccc1[S+]2[O-] (stereo not shown) [Compound 17]	220 µM (≈ 115 µg/mL)	220 µM (≈ 115 µg/mL)	220 µM (≈ 115 µg/mL)
O=C(NCCCN1CCCC1)c1ccc2c(c1)N(Cc1cccc(Cl)c1)C(=O)c1ccccc1S2 [Compound 18]	110 µM (≈ 55.7 µg/mL)	110 µM (≈ 55.7 µg/mL)	110 µM (≈ 55.7 µg/mL)
O=C(NCCN1CCCCCC1)c1ccc2c(c1)N(Cc1cccc(Cl)c1)C(=O)c1ccccc1[S+]2[O-] (stereo not shown) [Compound 20]	110 µM (≈ 59 µg/mL)	110 µM (≈ 59 µg/mL)	110 µM (≈ 59 µg/mL)
